Read-outs that look alike come from different tables or passages of the source.
What was measured:
[1] = test system: collagen type 1 (Col1a2) gene expression in rat tail tendon fascicles; experiment: Ex vivo assay, tendon fascicles, collagen type 1 mRNA (qPCR); assay type: cell-based, Sprague Dawley rat; settings: Rattus norvegicus, 96 h, read-out: Ex vivo Col1a2 (EC50 uM)
[2] = biological target: recombinant human Jak3 (aa811-1124) (Homo sapiens (Human), UniProt P52333); experiment: Kinase panel, substrate peptide phosphorylation (Caliper mobility shift), JAK3; assay type: biochemical
Chain of recombinant human Jak3 (aa811-1124) (P52333 811-1124 limits assumed): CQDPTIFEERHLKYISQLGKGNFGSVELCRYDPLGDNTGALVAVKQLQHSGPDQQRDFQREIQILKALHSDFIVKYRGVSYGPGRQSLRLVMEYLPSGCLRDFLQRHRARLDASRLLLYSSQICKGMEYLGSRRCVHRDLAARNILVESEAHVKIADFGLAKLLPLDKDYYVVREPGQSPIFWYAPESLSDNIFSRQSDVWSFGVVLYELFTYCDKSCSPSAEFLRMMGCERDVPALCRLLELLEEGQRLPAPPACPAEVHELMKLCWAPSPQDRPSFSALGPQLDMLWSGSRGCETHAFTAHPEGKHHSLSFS

[3] = biological target: recombinant human Tyk2 (aa888-1187) (Homo sapiens (Human), UniProt P29597); experiment: Kinase panel, substrate peptide phosphorylation (Caliper mobility shift), TYK2; assay type: biochemical; settings: 3 nM kinase, 45 uM ATP, 60 min at 30° C.
Chain of recombinant human Tyk2 (aa888-1187) (P29597 888-1187): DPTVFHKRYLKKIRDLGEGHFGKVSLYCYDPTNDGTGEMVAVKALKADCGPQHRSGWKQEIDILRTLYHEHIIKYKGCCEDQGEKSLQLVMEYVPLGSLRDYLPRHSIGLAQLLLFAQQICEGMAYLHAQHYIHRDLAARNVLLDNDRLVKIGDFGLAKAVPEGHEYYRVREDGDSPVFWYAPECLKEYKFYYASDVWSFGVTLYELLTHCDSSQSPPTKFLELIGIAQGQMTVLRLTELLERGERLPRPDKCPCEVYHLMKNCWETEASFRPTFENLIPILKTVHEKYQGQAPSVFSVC

[4] = test system: Tenomodulin (Tnmd) gene expression in rat tail tendon fascicles; experiment: Ex vivo assay, tendon fascicles, Tenomodulin mRNA (qPCR); assay type: cell-based, Sprague Dawley rat; settings: Rattus norvegicus, 96 h, read-out: Ex vivo Tnmd (EC50 uM)
[5] = test system: Scleraxis (Scx) gene expression in rat tail tendon fascicles; experiment: Ex vivo assay, tendon fascicles, Scleraxis mRNA (qPCR); assay type: cell-based, Sprague Dawley rat; settings: Rattus norvegicus, 96 h, read-out: Ex vivo SCX (EC50 uM)
[6] = biological target: recombinant human Jak1 (aa 866-1154) (Homo sapiens (Human), UniProt P23458); experiment: Kinase panel, substrate peptide phosphorylation (Caliper mobility shift), JAK1; assay type: biochemical; settings: 3 nM kinase, 45 uM ATP, 60 min at 30° C.
Chain of recombinant human Jak1 (aa 866-1154) (P23458 866-1154): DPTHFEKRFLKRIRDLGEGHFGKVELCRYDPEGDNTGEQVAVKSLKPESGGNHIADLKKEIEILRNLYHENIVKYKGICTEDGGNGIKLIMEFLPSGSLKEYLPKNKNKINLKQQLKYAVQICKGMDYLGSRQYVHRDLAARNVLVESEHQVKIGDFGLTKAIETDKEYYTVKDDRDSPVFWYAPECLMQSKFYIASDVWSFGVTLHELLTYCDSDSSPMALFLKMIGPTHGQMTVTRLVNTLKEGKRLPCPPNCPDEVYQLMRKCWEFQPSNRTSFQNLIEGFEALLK

[7] = biological target: recombinant human Jak2 (aa808-1132) (Homo sapiens (Human), UniProt O60674); experiment: Kinase panel, substrate peptide phosphorylation (Caliper mobility shift), JAK2; assay type: biochemical
Chain of recombinant human Jak2 (aa808-1132) (O60674 808-1132): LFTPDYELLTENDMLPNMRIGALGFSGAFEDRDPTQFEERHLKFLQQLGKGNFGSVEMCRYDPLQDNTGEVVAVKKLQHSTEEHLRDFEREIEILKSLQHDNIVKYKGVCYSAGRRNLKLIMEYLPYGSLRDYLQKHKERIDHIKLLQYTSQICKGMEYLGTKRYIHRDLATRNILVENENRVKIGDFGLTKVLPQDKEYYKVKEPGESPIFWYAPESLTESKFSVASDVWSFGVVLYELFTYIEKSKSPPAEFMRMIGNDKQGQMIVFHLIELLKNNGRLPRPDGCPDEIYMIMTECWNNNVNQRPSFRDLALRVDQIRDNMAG

[8] = test system: mouse immortalized TT-D6 Scx-luciferase (ScxL) cell line; transcriptional activation of Scleraxis (Scx) gene; experiment: SCX-LUC in vitro assay (scleraxis promoter luciferase reporter); assay type: cell-based; settings: Mus musculus, 96 h
[9] = In-vivo release from microparticles in a rat model
Description: (§1) Test Compound A incorporated into the microparticles provides an initial release (burst) of about 5-10% of drug over a period of 1 to 2 days, followed by a steady state release of drug over a period of 21 days (FIG. 1). In-vivo the microparticles could extend the release of Test Compound A over 4 weeks in a rat model.

[10] = Cumulative release from PLGA microparticle formulations in PBS buffer; assay type: physicochemical; settings: incorporated into PLGA microparticles, PBS buffer pH 7.4, 1% Tween 20
Description: In the current invention, the microparticles formulation contains a copolymer of DL-lactide and glycolide in a 50:50 molar ratio with an ester end group plus Test Compound A is used. The total amount of Test Compound A incorporated into the microparticles ranges from 2% to 10% (w/w). The microparticles are formulated to mean mass range in size from 5 to 25 microns. The population of microparticles is formulated to be delivered through a 22 gauges or higher needles (see Table A below). Organic solvent was used for preparation of microparticles were dichloromethane (DCM) and ethyl acetate (EA) either alone or in combination with methanol (MeOH) and/or dimethyl sulfoxide (DMSO) e.g., ratio of MeOH/DMSO from 5-15% in DCM or EA as primary solvent. Additional excipients may be added such as, but not limited to, carboxymethylcellulose sodium, mannitol and ploxamer to achieve isotonicity and promote syringeability.
as §1

Row | SMILES | EC50 [1] [µM] | IC50 [2] [µM] | IC50 [3] [µM] | EC50 [4] [µM] | EC50 [5] [µM] | IC50 [6] [µM] | IC50 [7] [µM] | EC50 ([8]; read-out: Scx-Luc (EC50 uM)) [µM] | extended release in-vivo [9] [weeks] | period of steady state release of drug ([10]; after initial burst) [days] | initial release (burst) of drug ([10]; over a period of 1 to 2 days) | EC50 ([8]; Examples table, TT-D6 Scx-luciferase cells, 1 ng/ml TGFβ1, four days, read-out: Scx-Luc (EC50 μM)) [µM] | EC50 ([8]; Table 1, TT-D6 Scx-luciferase cells, 1 ng/ml TGFβ1, four days, read-out: Scx-Luc (EC50 uM)) [µM]
1 | N#C[C@H]1C[C@H](O)CC[C@@H]1n1cc(C(N)=O)c(Nc2ccc(C(F)(F)F)cc2)n1 [reference compound] | 3.97 | 10 | 0.11 | 3.82 | 5.65 | 0.004 | 0.15 | 2.06 |  |  |  |  | 
2 | Cc1cc(S(=O)(=O)N[C@H]2C[C@](O)(C(F)(F)F)C2)ccc1-c1ccc2[nH]nc(N)c2n1 [Example 2, 4-(3-amino-1H-pyrazolo[4,3-b]pyridin-5-yl)-N-((1s,3s)-3-hydroxy-3-(trifluoromethyl)cyclobutyl)-3-methylbenzenesulfonamide] |  |  |  |  |  |  |  |  | 4 | 21 | 5-10% | 0.376 | 
3 | N#C[C@H]1C[C@@H](N2CCC2)CC[C@@H]1n1cc(C(N)=O)c(Nc2ccc(C(F)(F)F)cc2)n1 [reference compound] | 0.42 | 10 | 1.8 | 0.08 | 1.16 | 0.04 | 2.7 | 2.05 |  |  |  |  | 
4 | N#C[C@@H]1C[C@H](N2CCC2)CC[C@H]1n1cc(C(N)=O)c(Nc2ccc(C(F)(F)F)cc2)n1 | 3.65 | 10 | 0.12 | 5.76 | 5.63 | 0.002 | 0.24 |  |  |  |  |  | 
5 | O=C(Nc1nc2cccc(-c3ccc(OCc4cccnc4)cc3)n2n1)C1CC1 [reference compound] | 0.4 |  |  | 5.99 | 0.36 |  |  |  |  |  |  |  | 0.02
